Where two headings read alike, the source gives them in different places. Where only a bound is given, the exact number is not on record here.

The values that follow come from patent US20250163037A1, “SUBSTITUTED ISOXAZOLINE DERIVATIVES” (BASF SE, priority 2022, published 2025).

Common to all, as to type: in vivo
Experiment [1] has as its system Orchid Thrips (Dichromothrips corbetti). Put plainly: B.6 Orchid Thrips, floral-immersion technique. As to conditions: for mortality at 300 ppm: read-out: mortality in comparison with untreated controls; for B.6, 10 ppm: comparative experiment, test B.6 (percent mortality), unit not given. The protocol:
Dichromothrips corbetti adults used for bioassay were obtained from a colony maintained continuously under laboratory conditions. For testing purposes, the test compound was diluted in a 1:1 mixture of acetone:water (vol:vol), plus Kinetic at a rate of 0.01% v/v.
Thrips potency of each compound was evaluated by using a floral-immersion technique. Each orchid petal was dipped into treatment solution and allowed to dry in Petri dishes. Treated petals were placed into individual re-sealable plastic along with about 20 adult thrips. All test arenas were held under dark condition and a temperature of about 28° C. for duration of the assay. The percent mortality was recorded 72 hours after treatment.

Experiment [2] relates to Diamond Back Moth (Plutella xylostella). The experiment is described as follows: B.5 Diamond Back Moth, cabbage leaf disc dip. As to conditions: for B.5, 10 ppm: comparative experiment, test B.5 (mortality), unit not given; for mortality at 300 ppm: Plutella xylostella, foliar, 3rd instar larvae, 72 hours after treatment, read-out: mortality in comparison with untreated controls. Here is the method: The active compound was dissolved at the desired concentration in a mixture of 1:1 (vol:vol) distilled water:acetone. Surfactant (Kinetic) was added at a rate of 0.01% (vol/vol). The test solution was prepared at the day of use. Cabbage leaf discs (60 mm in diameter) were dipped in test solution and air-dried. Treated leaves were placed in petri dishes lined with moistened filter paper and inoculated with ten 3rd instar larvae. Mortality was recorded 72 hours after treatment. Feeding damages were also recorded using a scale of 0-100%.

For experiment [3], the system named is Green Peach Aphid (Myzus persicae). Put plainly: B.2 Green Peach Aphid (mixed life stages), systemic artificial diet under membrane. As to conditions: 72 h, read-out: mortality in comparison with untreated controls. An excerpt:
For evaluating control of Green Peach Aphid through systemic means the test unit consisted of 96-well-microtiter plates containing liquid artificial diet under an artificial membrane. The compounds were formulated using a solution containing 75% v/v water and 25% v/v DMSO. Different concentrations of formulated compounds were pipetted into the aphid diet, using a custom-built pipette, at two replications. After application, 5-8 adult aphids were placed on the artificial membrane inside the microtiter plate wells. The aphids were then allowed to suck on the treated aphid diet and incubated at about 23±1° C. and about 50±5% relative humidity for 3 days. Aphid mortality and fecundity was then visually assessed.

Experiment [4] concerns Tobacco Budworm (Heliothis virescens). Put plainly: B.3 Tobacco Budworm, microtiter plate with insect diet and eggs. As to conditions: 120 h, egg and larval mortality after 5 days, read-out: mortality in comparison with untreated controls. Here is the method: For evaluating control of Tobacco Budworm, the test unit consisted of 96-well-microtiter plates containing an insect diet and 15-25 H. virescens eggs. The compounds were formulated using a solution containing 75% v/v water and 25% v/v DMSO. Different concentrations of formulated compounds were sprayed onto the insect diet at 10 μl, using a custom-built micro atomizer, at two replications. After application, microtiter plates were incubated at about 28±1° C. and about 80±5% relative humidity for 5 days. Egg and larval mortality was then visually assessed.

The subject of experiment [5] is Yellow Fever Mosquito (Aedes aegypti). The experiment is described as follows: whole plant or invertebrate. The conditions noted are these: 48 h, larval mortality after 2 days, read-out: mortality in comparison with untreated controls. Here is the method:
For evaluating control of Yellow Fever Mosquito, the test unit consisted of 96-well-microtiter plates containing 200 μl of tap water per well and 5-15 freshly hatched A. aegypti larvae. The active compounds were formulated using a solution containing 75% (v/v) water and 25% (v/v) DMSO. Different concentrations of formulated compounds or mixtures were sprayed onto the insect diet at 2.5 μl, using a custom-built micro atomizer, at two replications.
After application, microtiter plates were incubated at 28±1° C., 80±5% RH for 2 days. Larval mortality was then visually assessed.

Experiment [6] has as its system Boll Weevil (Anthonomus grandis). Put plainly: B.1 Boll weevil, microtiter plate with insect diet and eggs. The conditions noted are these: 120 h, egg and larval mortality after 5 days, read-out: mortality in comparison with untreated controls. The protocol: For evaluating control of boll weevil, the test unit consisted of 96-well-microtiter plates containing an insect diet and 5-10 A. grandis eggs.
The compounds were formulated using a solution containing 75% v/v water and 25% v/v DMSO. Different concentrations of formulated compounds were sprayed onto the insect diet at 5 μl, using a custom-built micro atomizer, at two replications.
After application, microtiter plates were incubated at about 25±1° C. and about 75±5% relative humidity for 5 days. Egg and larval mortality were then visually assessed.

Experiment [7] deals with Southern Armyworm (Spodoptera eridania). Put plainly: B.7 Southern Armyworm, 2nd instar larvae, sprayed lima bean plants. The conditions noted are these: 96 h, 4 days after treatment, read-out: mortality in comparison with untreated controls. The protocol: The active compounds were formulated by a Tecan liquid handler in 100% cyclohexanone as a 10′000 ppm solution supplied in tubes. The 10′000 ppm solution was serially diluted in 100% cyclohexanone to make interim solutions. These served as stock solutions for which final dilutions were made by the Tecan in 50% acetone:50% water (v/v) into 10 or 20 ml glass vials. A nonionic surfactant (Kinetic®) was included in the solution at a volume of 0.01% (v/v). The vials were then inserted into an automated electrostatic sprayer equipped with an atomizing nozzle for application to plants/insects. Lima bean plants (variety Sieva) were grown 2 plants to a pot and selected for treatment at the 1st true leaf stage. Test solutions were sprayed onto the foliage by an automated electrostatic plant sprayer equipped with an atomizing spray nozzle. The plants were dried in the sprayer fume hood and then removed from the sprayer. Each pot was placed into perforated plastic bags with a zip closure. Ten to 11 armyworm larvae were placed into the bag and the bags zipped closed. Test plants were maintained in a growth room at about 25° C. and about 20-40% relative humidity for 4 days, avoiding direct exposure to fluorescent light (14:10 light:dark photo-period) to prevent trapping of heat inside the bags. Mortality and reduced feeding were assessed 4 days after treatment, compared to untreated control plants.

Experiment [8] concerns Silverleaf Whitefly (Bemisia argentifoli). Put plainly: B.8 Silverleaf Whitefly (adults), sprayed cotton plants. As to conditions: 72 h, 3 days after treatment, read-out: mortality in comparison with untreated controls. Here is the method:
The active compounds were formulated by a Tecan liquid handler in 100% cyclohexanone as a 10,000-ppm solution supplied in tubes. The 10,000-ppm solution was serially diluted in 100% cyclohexanone to make interim solutions. These served as stock solutions for which final dilutions were made by the Tecan in 50% acetone:50% water (v/v) into 5 or 10 ml glass vials. A nonionic surfactant (Kinetic®) was included in the solution at a volume of 0.01% (v/v). The vials were then inserted into an automated electrostatic sprayer equipped with an atomizing nozzle for application to plants/insects. Cotton plants at the cotyledon stage (one plant per pot) were sprayed by an automated electrostatic plant sprayer equipped with an atomizing spray nozzle. The plants were dried in the sprayer fume hood and then removed from the sprayer. Each pot was placed into a plastic cup and about 10 to 12 whitefly adults (approximately 3-5 days old) were introduced. The insects were collected using an aspirator and a nontoxic Tygon® tubing connected to a barrier pipette tip. The tip, containing the collected insects, was then gently inserted into the soil containing the treated plant, allowing insects to crawl out of the tip to reach the foliage for feeding. Cups were covered with a reusable screened lid. […] Mortality was assessed 3 days after treatment, compared to untreated control 5 plants.

[9] abbreviates: 300 ppm, adult thrips, 72 hours after treatment.
Where [10] appears, read: 2500 ppm, aphid mortality after 3 days.

Turning to `CCN(C1=NOC(c2cc(Cl)c(F)c(Cl)c2)(C(F)(F)F)C1)c1ccc(C#N)c(-n2cncn2)c1` (stereo not drawn) [I-20, 4-[[5-(3,5-dichloro-4-fluoro-phenyl)-5-(trifluoromethyl)-4H-isoxazol-3-yl]-ethyl-amino]-2-(1,2,4-triazol-1-yl)benzonitrile], in experiment [1] (setting [9]), the mortality at 300 ppm is at least 75%.
On to `N#Cc1ccc(C2=NOC(c3cc(Cl)cc(Cl)c3)(C(F)(F)F)C2)cc1-n1cncn1` [WO2011/073444 Table 3937, No. D-539, reference compound], for which the “B.6, 10 ppm” value in experiment [1] worked out at 0. In addition, the “B.5, 10 ppm” value in experiment [2] was 0.
In the case of `O=C(NCC(F)(F)F)c1cnn(-c2cc(NC3=NOC(c4cc(Cl)c(F)c(Cl)c4)(C(F)(F)F)C3)ccc2Cl)c1` (stereo not drawn) [I-18, 1-[2-chloro-5-[[5-(3,5-dichloro-4-fluoro-phenyl)-5-(trifluoromethyl)-4H-isoxazol-3-yl]amino]phenyl]-N-(2,2,2-trifluoroethyl)pyrazole-4-carboxamide], the mortality at 300 ppm in experiment [1] (setting [9]) was at least 75%.
As for `N#Cc1ccc(NC2=NOC(c3cc(Cl)cc(Cl)c3)(C(F)(F)F)C2)cc1-n1cncn1` (stereo not drawn) [I-1], the mortality at 2500 ppm in experiment [3] (setting [10]), in experiment [4], in experiment [5] and in experiment [6] was at least 75% throughout. Moreover, the “B.6, 10 ppm” value in experiment [1] is listed as 100. The mortality at 300 ppm in experiment [1] (setting [9]), in experiment [2] and in experiment [7] was at least 75% each time. In addition, the “B.5, 10 ppm” value in experiment [2] stood at 100.
Turning to `Fc1c(Cl)cc(C2(C(F)(F)F)CC(Nc3ccc(Cl)c(-n4cnc(C(F)(F)F)c4)c3)=NO2)cc1Cl` (stereo not drawn) [I-16, N-[4-chloro-3-[4-(trifluoromethyl)imidazol-1-yl]phenyl]-5-(3,5-dichloro4-fluoro-phenyl)-5-(trifluoromethyl)-4H-isoxazol-3-amine], the mortality at 300 ppm in experiment [1] (setting [9]) is at least 75%.
The same measure, in the same setting: with `N#Cc1ccc(NC2=NOC(c3cc(Cl)c(F)c(Cl)c3)(C(F)(F)F)C2)cc1-n1cncn1` (stereo not drawn) [I-4, 4-[[5-(3,5-dichloro-4-fluoro-phenyl)-5-(trifluoromethyl)-4H-isoxazol-3-yl]amino]-2-(1,2,4-triazol-1-yl)benzonitrile] the figure was at least 75%.
As to `Fc1c(Cl)cc(C2(C(F)(F)F)CC(Nc3ccc(Cl)c(-n4cc(C(F)(F)F)cn4)c3)=NO2)cc1Cl` (stereo not drawn) [I-14, N-[4-chloro-3-[4-(trifluoromethyl)pyrazol-1-yl]phenyl]-5-(3,5-dichloro-4-fluoro-phenyl)-5-(trifluoromethyl)-4H-isoxazol-3-amine], the mortality at 300 ppm in experiment [1] (setting [9]) and in experiment [8] was at least 75% each time.
In the case of `COCN(C1=NOC(c2cc(Cl)c(F)c(Cl)c2)(C(F)(F)F)C1)c1ccc(Cl)c(-n2cc(C(F)(F)F)cn2)c1` (stereo not drawn) [I-23, N-[4-chloro-3-[4-(trifluoromethyl)pyrazol-1-yl]phenyl]-5-(3,5-dichloro-4-fluoro-phenyl)-N-(methoxymethyl)-5-(trifluoromethyl)-4H-isoxazol-3-amine], the mortality at 300 ppm in experiment [1] (setting [9]), in experiment [2] and in experiment [7] was at least 75% each time.
Regarding `CCOC(=O)N(C1=NOC(c2cc(Cl)c(F)c(Cl)c2)(C(F)(F)F)C1)c1ccc(Cl)c(-n2cnc(C(F)(F)F)c2)c1` (stereo not drawn) [I-26, ethyl N-[4-chloro-3-[4-(trifluoromethyl)imidazol-1-yl]phenyl]-N-[5-(3,5-dichloro-4-fluoro-phenyl)-5-(trifluoromethyl)-4H-isoxazol-3-yl]carbamate], the mortality at 2500 ppm in experiment [3] is at least 75%. In addition, the mortality at 300 ppm in experiment [1] (Thrips, 72 h) was at least 75%.
In the case of `N#Cc1cnn(-c2cccc(C3=NOC(c4cc(Cl)cc(Cl)c4)(C(F)(F)F)C3)c2)c1` (stereo not drawn) [WO2011/073444 Table C.1, No. I-4, reference compound], the “B.6, 10 ppm” value in experiment [1] was 0. Besides, the “B.5, 10 ppm” value in experiment [2] is on record as 0.
With `Fc1c(Cl)cc(C2(C(F)(F)F)CC(Oc3ccc(Cl)c(-n4cncn4)c3)=NO2)cc1Cl` (stereo not drawn) [I-27, 3-[4-chloro-3-(1,2,4-triazol-1-yl)phenoxy]-5-(3,5-dichloro-4-fluoro-phenyl)-5-(trifluoromethyl)-4H-isoxazole], the mortality at 2500 ppm in experiment [3] (setting [10]), in experiment [4], in experiment [5] and in experiment [6] was at least 75% in each case. The mortality at 300 ppm in experiment [1] (setting [9]) and in experiment [7] was at least 75% throughout.
